From patent publication US9675591B2, “Methods for treating seizure disorders and pain” (THE REGENTS OF THE UNIVERSITY OF CALIFORNIA, priority 2013, dated 2017)
“Also recorded” adds a separate entry of the source.

How the values were obtained:
[1] = target: Kv2.1 (Homo sapiens (Human), UniProt Q14721); assay: Voltage-clamp, Kv2.1 in HEK-293 cells; type: cell-based; details: read-out: EC50 or IC50, Kv2.1
Protocol: All experiments were conducted at room temperature (22-24° C.) with an EPC-10 amplifier and Pulse software (HEKA, Lambrecht/Pfalz, Germany) in the whole-cell mode of the patch-clamp technique. Human embryonic kidney (HEK)-293 cell lines stably expressing hNav1.1, hNav1.5, hNav1.7 channels (generously provided by Dr. Christopher Lossin, University of California Davis), hNav1.4 (Frank Lehmann-Horn, University of Ulm), or hKv2.1 channels (James Trimmer, University of California Davis) were bathed in extracellular solution containing (in mM): 160 NaCl; 4.5 KCl; 1 MgCl2; 2 CaCl2; 10 HEPES [pH was adjusted to 7.4 using NaOH (310 mOsm)]. Pipettes were filled with intracellular solution containing (in mM): 145 KF; 2 MgCl2; 10 ethylene glycol tetraacetic acid; 10 HEPES (pH adjusted to 7.2 with KOH; 300 mOsm). Neuroblastoma N1E-115 cells (ATCC, Manassa, Va., USA) expressing Nav1.2 were patched with a CsF internal solution consisting of (in mM): 10 NaF; 110 CsF; 20 CsCl; 2 ethylene glycol tetraacetic acid; 10 HEPES (CsOH to pH 7.35; 300 mOsm). All pipette tip resistances were 2-4 MΩ. Series resistances of 3-10 MΩ were compensated 40-80%. All cells were voltage-clamped to a holding potential of −90 mV unless otherwise specified. The sampling frequency was 5 kHz. Na^+ currents were elicited by 30-ms pulse to 0 mV from −90 mV applied every 10 s. […]

[2] = system: cultured hippocampal neurons; assay: Synchronous intracellular Ca2+ oscillations (FLIPR); type: cell-based, mouse; details: for effect on picrotoxin (PTX) induced Ca2+ oscillations: added 10 min before PTX
Protocol: Animals were treated humanely and with regard for alleviation of suffering according to protocols approved by the Institutional Animal Care and Use Committee of the University of California, Davis. Hippocampal neuron cultures were dissociated from hippocampi dissected from C57Bl/6J mouse pups at postnatal day 0-1 and maintained in Neurobasal complete medium (Neurobasal medium supplemented with NS21, 0.5 mM L-glutamine, HEPES) with 5% fetal bovine serum. For Ca^2+ imaging studies using FLIPR, dissociated hippocampal cells were plated onto poly-L-lysine coated clear-bottom, black wall, 96-well imaging plate (BD, Franklin Lakes, N.J., USA) at a density of 0.8×10^5/well. The medium was changed twice a week by replacing half the volume of culture medium in the well with serum-free Neurobasal complete medium. The neurons were maintained at 37° C. with 5% CO2 and 95% humidity.
Hippocampal neurons 14-17 DIV were used for simultaneous measurements of intracellular Ca^2+ transients in all wells of a 96-well plate as described previously (Cao et al., 2012). After aspiration, the cells were incubated with 4 μM Fluo-4 in Locke's buffer containing 0.5 mg/ml bovine serum albumin for 1 h at 37° C. The plates were then transferred to the FLIPR (Molecular Devices, Sunnyvale, Calif., USA) cell plate stage. After 4 min of baseline recordings, Ca^2+ signals were then recorded for 10 min in the presence or absence of SKA-19 followed by addition of the Ca^2+ enhancing agents 4-AP or PTX, and the intracellular Ca^2+ concentration ([Ca^2+]i) was monitored for an additional 30 min. Ca^2+-enhancing agents triggered an immediate rise in [Ca^2+]i that was quantified by determining the area under the curve of the Fluo-4 arbitraiy fluorescence units for a duration of 5 min following agent addition.
Hippocampal neurons between 13-17 days in vitro (DIV) were used to investigate how Ca^2+ enhancing agent alters synchronous Ca^2+ oscillations that normally occur in healthy neurons at this developmental stage. This method permits simultaneous measurements of intracellular Ca^2+ transients in all wells of a 96-well plate as described previously (Cao et al., 2012). Baseline recordings were acquired in Locke's buffer (8.6 mM HEPES, 5.6 mM KCl, 154 mM NaCl, 5.6 mM glucose, 1.0 mM MgCl2, 2.3 mM CaCl2, and 0.0001 mM glycine, pH 7.4) for 10 min in presence or absence of SKA-19 followed by addition of the Ca^2+ enhancing agents 4-aminopyridine (4-AP) or picrotoxin using a programmable 96-channel pipetting robotic system, and the intracellular Ca^2+ concentration ([Ca^2+]i) was monitored for an additional 30 min. Unless otherwise indicated, pharmacological interventions were introduced 10 min prior to Ca^2+ enhancing agent. Ca enhancing agent triggered an immediate rise in [Ca^2+]i that was quantified by determining the area under the curve (AUC) of the Fluo-4 arbitrary fluorescence units for a duration of 5 min following Ca^2+ enhancing agent addition. Ca^2+ enhancing agent also altered the frequency and amplitude of neuronal synchronous Ca^2+ oscillations, which were analyzed during the 10 min period after addition of Ca^2+ enhancing agent […].

[3] = system: hippocampal kindled rats; assay: Hippocampal kindled seizures; type: in vivo
Protocol: Bipolar electrodes were surgically implanted into the hippocampus of anesthetized rats, which were allowed to recover for one week. One week after the surgery, the rats were stimulated with suprathreshold trains of 200 μAmps for 10 sec, 50 Hz, every 30 min for 6 hours (12 stimulations per day) on alternate days (4 to 5 stimulus days) until they were fully kindled. One week later the effect of a single i.p. dose of test compound was assessed on behavioral seizure score (BSS) and afterdischarge duration (ADD). An initial group of kindled rats (n=6-8) were tested at 15, 45, 75, 105, 135, 165, and 195 min after drug administration. Results obtained at the various time points were compared with the last control stimulus delivered 15 minutes prior to drug administration. Thus, each animal serves as its own control. The BSS's were scored according to the following criteria: Stage 1—mouth and facial clonus; Stage 2—stage 1 plus head nodding; Stage 3—stage 2 plus forelimb clonus; Stage 4—stage 3 plus rearing; Stage 5—stage 4 plus repeated rearing and falling. The afterdischarge threshold (ADT) is measured in the kindled rat. […] The BSS and ADD for each dose were averaged at the TPE, the S.E.M. calculated, and the significance of the difference compared to control values determined. (Significant differences in BSS from control and treated groups are determined by the non-parametric Mann-Whitney U test).

Chain of Kv2.1 (Q14721 whole entry): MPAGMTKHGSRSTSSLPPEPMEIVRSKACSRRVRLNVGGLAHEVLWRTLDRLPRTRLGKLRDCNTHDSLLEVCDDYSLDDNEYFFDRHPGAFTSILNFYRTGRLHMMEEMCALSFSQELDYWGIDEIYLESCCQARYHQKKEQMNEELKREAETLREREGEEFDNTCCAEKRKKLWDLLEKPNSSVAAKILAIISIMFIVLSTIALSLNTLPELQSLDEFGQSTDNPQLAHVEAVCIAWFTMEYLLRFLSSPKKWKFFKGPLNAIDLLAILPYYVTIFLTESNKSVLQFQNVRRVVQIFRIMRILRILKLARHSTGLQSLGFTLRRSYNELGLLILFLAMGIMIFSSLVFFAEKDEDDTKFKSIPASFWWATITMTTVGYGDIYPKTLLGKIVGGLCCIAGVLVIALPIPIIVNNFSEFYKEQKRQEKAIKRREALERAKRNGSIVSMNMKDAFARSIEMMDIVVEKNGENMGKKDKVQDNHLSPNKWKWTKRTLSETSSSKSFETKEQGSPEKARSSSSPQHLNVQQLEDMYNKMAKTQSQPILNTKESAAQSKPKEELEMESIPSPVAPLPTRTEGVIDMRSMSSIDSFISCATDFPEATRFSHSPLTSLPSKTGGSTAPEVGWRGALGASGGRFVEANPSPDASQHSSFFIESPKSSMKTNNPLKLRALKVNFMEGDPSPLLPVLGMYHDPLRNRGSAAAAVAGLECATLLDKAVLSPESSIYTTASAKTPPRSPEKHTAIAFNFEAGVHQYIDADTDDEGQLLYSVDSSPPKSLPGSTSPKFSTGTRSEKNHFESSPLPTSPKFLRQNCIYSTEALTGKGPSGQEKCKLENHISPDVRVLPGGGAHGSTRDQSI

Nc1nc2ccc(SC(F)(F)F)cc2s1 [SKA-19, 6-((trifluoromethyl)thio)benzo[d]thiazol-2-amine]
IC50 [1]: 22.3 ± 5.6 µM | effect on spontaneous Ca2+ oscillations ([2]; SKA-19 1 μM or less): did not significantly inhibit; also recorded: no effect | effect on spontaneous Ca2+ oscillations ([2]; SKA-19 3 μM or more): completely eliminated | effect on 4-AP induced initial Ca2+ rise and oscillations ([2]; added 10 min before 4-AP): potently suppressed; also recorded: inhibited | effect on picrotoxin (PTX) induced Ca2+ oscillations [2]: potently suppressed | effect on picrotoxin (PTX) induced Ca2+ oscillations ([2]; listed as SKA-10): inhibited | afterdischarge duration (ADD) ([3]; 30 mg/kg i.p., two fully kindled rats): completely suppressed | seizure score after treatment ([3]; 30 mg/kg i.p., two fully kindled rats, predrug score 4-5): 0 | ED50 ([3]; Rattus norvegicus, ip, 2 h): 5.47 mg/kg | toxicity in kindled rats ([3]; highest dose 15 mg/kg): no evidence of toxicity
